The source of these data is PubChem BioAssay AID1645866 (Buhrlage Lab, Dana-Farber Cancer Institute and Novartis …, 2021).

Activity calls are given as the source filed them.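 How the source made its calls: active means in confirmatory dose-response testing, peak deubiquitinase inhibition of 30% or more; inactive means the rest.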 A value given as a limit tells only on which side of the number the result lay.

For the experiment, the target named is Ubiquitin carboxyl-terminal hydrolase 28 (Homo sapiens) (UniProt Q96RU2). Put plainly: Ubiquitin-specific peptidase 28 DUB inhibitors, biochemical concentration-dependence assay, validation of primary screening hits (AID 1645866). Particulars: purified USP28, ubiquitin-rhodamine fluorescence, 30 min.
Ubiquitin carboxyl-terminal hydrolase 28 (Homo sapiens), sequence (Q96RU2 whole entry, looked up): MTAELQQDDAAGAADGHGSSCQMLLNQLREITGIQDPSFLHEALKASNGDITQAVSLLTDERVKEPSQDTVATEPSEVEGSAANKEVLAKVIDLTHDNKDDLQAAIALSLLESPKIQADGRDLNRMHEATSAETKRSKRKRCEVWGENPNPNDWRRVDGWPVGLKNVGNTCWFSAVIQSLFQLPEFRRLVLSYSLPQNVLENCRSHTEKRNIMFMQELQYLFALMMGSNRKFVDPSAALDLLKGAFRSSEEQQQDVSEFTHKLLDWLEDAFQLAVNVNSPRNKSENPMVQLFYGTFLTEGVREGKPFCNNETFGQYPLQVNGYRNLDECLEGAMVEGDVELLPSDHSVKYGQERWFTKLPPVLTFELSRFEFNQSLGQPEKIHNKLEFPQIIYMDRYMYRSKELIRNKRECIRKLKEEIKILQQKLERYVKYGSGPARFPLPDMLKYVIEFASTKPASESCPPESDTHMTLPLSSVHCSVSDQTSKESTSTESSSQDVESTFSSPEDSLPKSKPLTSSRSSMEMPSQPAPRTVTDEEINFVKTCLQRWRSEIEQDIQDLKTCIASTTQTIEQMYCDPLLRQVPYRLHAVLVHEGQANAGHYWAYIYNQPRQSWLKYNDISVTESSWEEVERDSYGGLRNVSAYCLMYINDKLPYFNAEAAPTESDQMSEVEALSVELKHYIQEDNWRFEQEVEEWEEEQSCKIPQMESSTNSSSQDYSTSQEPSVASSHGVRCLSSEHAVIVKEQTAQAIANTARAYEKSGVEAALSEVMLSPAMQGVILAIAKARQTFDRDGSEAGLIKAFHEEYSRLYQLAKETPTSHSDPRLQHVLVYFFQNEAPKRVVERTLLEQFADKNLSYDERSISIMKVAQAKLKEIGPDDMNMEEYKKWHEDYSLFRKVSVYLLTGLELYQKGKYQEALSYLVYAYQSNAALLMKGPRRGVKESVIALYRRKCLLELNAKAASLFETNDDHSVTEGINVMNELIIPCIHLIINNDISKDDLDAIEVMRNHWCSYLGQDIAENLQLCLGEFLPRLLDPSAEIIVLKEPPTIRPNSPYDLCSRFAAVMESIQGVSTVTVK
One may read the IC50 as the midpoint of a concentration-inhibition curve. Take `O=C(/C=C/c1ccccc1)N1CCN(C2=NS(=O)(=O)c3ccccc32)CC1`: the IC50 is > 50 µM (inactive).

For the compound `O=S(=O)(O)c1cc2cc3ccccc3cc2[nH]1`, the IC50 is > 50 µM (inactive).

As for `COc1ccc(-c2cc(C(F)F)n3ncc(C(=O)Nc4ccc5c(c4)OCCO5)c3n2)cc1`, the IC50 is > 50 µM (inactive).

As to `O=[N+]([O-])c1ccc(NCC2COc3ccccc3O2)c(Cl)c1` (stereo not given), the IC50 was 3.75 µM.

In the case of `CCOc1ccc2[nH]c(=O)c(CN(C(=O)c3cccs3)C3CCCC3)cc2c1`, the IC50 is 14.1 µM.

For the compound `Nc1ccc(NC(=O)c2cc3c(s2)CCC3)cc1[N+](=O)[O-]`, the IC50 was 16.9 µM.

Consider `O=C(Nc1ccccc1Sc1ncc(-c2ccc(Cl)cc2)cn1)c1ccco1`, for which the IC50 is 23.6 µM.

`CO/C=C/C(=O)c1cc2cnc3c(=N)cc(NC(C)=O)c([nH]1)c23`: the IC50 was > 50 µM (inactive).

Turning to `Oc1cc(OCc2cccc(C(F)(F)F)c2)ccc1-c1ccn[nH]1`, the IC50 was 3.84 µM.

In the case of `Cc1c(-c2nc(-c3ccccc3Cl)no2)nnn1-c1cccc(F)c1`, the IC50 was 14.2 µM.

For the compound `COc1cccc(NC(=O)C2Cn3ccnc3C3(CCN(C(C)=O)CC3)O2)c1` (stereo not given), the IC50 is > 50 µM (inactive).

On to `O=C(NCc1ccncc1)C1CCN(c2cncnc2N2CCCCC2)CC1`, for which the IC50 is 1.82 µM.

`CC(C)(C)c1ccc(Cn2nnc3c(=O)[nH]c(C4CCN(S(=O)(=O)c5ccc(S(=O)(=O)NC6CC6)cc5)CC4)nc32)cc1`: the IC50 is 30.9 µM.

On to `O=C(Cn1cc(C(=O)C(F)(F)F)c2ccccc21)N1CCc2ccccc21`, for which the IC50 is 2.68 µM.

For `O=C(COC(=O)C1CCCN1C(=O)C12CC3CC(CC(C3)C1)C2)c1ccc(Cl)cc1` (stereo not given), the IC50 was > 50 µM (inactive).

For `Cc1ccc2nc(CNC(=O)c3ccccc3-c3nc(-c4ccc(F)cc4)no3)[nH]c2c1`, the IC50 is 39 µM.

`Cc1cc(/C=C2/C(=N)N3C(c4ccccc4)=CSC3=NC2=O)c(C)n1-c1ccc(F)cc1`: the IC50 is > 50 µM (inactive).

Take `O=C(CSc1ccc(-c2cccc([N+](=O)[O-])c2)nn1)Nc1cccc(F)c1`: the IC50 was 2.23 µM.

For the compound `N#Cc1ccc(NC(=O)c2ccc(S(=O)(=O)N3CCCCC3)cc2)cc1`, the IC50 is 27.6 µM.

On to `COc1ccc(-c2nc(Cn3nnc(C(=O)Nc4ccc(C)cc4C)c3N)c(C)o2)cc1`, for which the IC50 is 42.9 µM.

Take `CCn1ccc2c(cc(C(=O)Nc3ccccc3F)n2C)c1=O`: the IC50 was 15.2 µM.

For `CC(=O)Nc1ccc([C@H]2OCC(=O)N(C3CCOCC3)[C@@H]2CO)cc1`, the IC50 is > 50 µM (inactive).

Consider `CS(=O)(=O)NC1CCCN(C(=O)Nc2cccc3ccccc23)C1` (stereo not given), for which the IC50 was 30.5 µM.

As to `COc1ccc(-c2nnc(SCc3ccccc3C#N)o2)c(OC)c1`, the IC50 was > 50 µM (inactive).

With `COC(=O)CC1CC23OC2(C(=O)c2c(O)cccc2C3=O)C(C)O1` (stereo not given), the IC50 was 3.55 µM.

Consider `O=C(Cn1c(=O)n(Cc2ccc(F)cc2)c(=O)c2ncccc21)Nc1ccccc1`, for which the IC50 was 29.5 µM.

In the case of `O=C(CN1C(=O)c2ccccc2Sc2ccc(C(=O)N3CCCC3)cc21)Nc1ccccc1Cl`, the IC50 is 29.6 µM.

For the compound `Cc1cc(C)n(-c2cccc(C(=O)Nc3ccc4c(c3)CCN4S(C)(=O)=O)c2)n1`, the half-inhibitory concentration (IC50) was 3.69 µM.

As to `O=C(/C=C/c1ccc(F)cc1)N1CCc2ccccc2C1`, the IC50 was 35.1 µM.

Consider `CC(C)c1cc(Nc2cccc(F)c2)n2nc(-c3cccnc3)nc2n1`, for which the IC50 was 24.8 µM.

`Cc1ccc(-n2cc(C(=O)NCc3cccnc3)nn2)cc1C`: the IC50 is 16.6 µM.

Consider `CN1CC2CN(C(=O)Nc3cccnc3)CCN2Cc2ccccc21` (stereo not given), for which the IC50 is > 50 µM (inactive).

Regarding `NS(=O)(=O)c1cccc(NC(=O)CN2CCCc3ccccc32)c1`, the IC50 is > 50 µM (inactive).

As for `COc1ccc(Nc2nc3c(S(=O)(=O)c4ccc(C)cc4)nnn3c3ccsc23)c(OC)c1`, the IC50 was 2.01 µM.

On to `CCOC(=O)c1ccc(-n2c(=O)c(C#N)cc3c(=O)n4ccccc4nc32)cc1`, for which the IC50 was > 50 µM (inactive).
